The text below walks through data of US10189786B2, “Antibacterial compounds” (Duke University, priority 2013, dated 2019).

≈ marks a conversion by molar mass, not a printed value.

Holding throughout (type): cell-based
For test [1], the system named is N. gonorrhoeae FA19 (a drug-sensitive strain). Put plainly: Disk diffusion assay, N. gonorrhoeae FA19. Conditions: disc 6 mm; for zone of inhibition at 0.2 µg/disc / zone of inhibition at 2 µg/disc / zone of inhibition at 20 µg/disc: Neisseria gonorrhoeae, read-out: diameter of the growth inhibition, FA19. The method, then:
(§1) An assay was performed on two strains of Acinetobacter Baumannii: antibiotic susceptible strain (Sus. A.b. Isolate), and multidrug-resistant strains (MDR A.b. Isolate). […] Activity is measured as the diameter (in mm) of the growth inhibition.

For test [2], the system named is N. gonorrhoeae H041. Put plainly: Disk diffusion assay, N. gonorrhoeae H041. Particulars: disc 6 mm; for zone of inhibition at 0.2 µg/disc / zone of inhibition at 2 µg/disc / zone of inhibition at 20 µg/disc: Neisseria gonorrhoeae, read-out: diameter of the growth inhibition, H041; for zone of inhibition at 0.2 µg/disc: H041, 0.2 μg per disc; for zone of inhibition at 2 µg/disc: H041, 2.0 μg per disc; for zone of inhibition at 20 µg/disc: H041, 20 μg per disc. The method, then:
as §1
(In general: In agar diffusion tests the substance spreads into inoculated agar from a disc or well.)

The subject of test [3] is N. gonorrhoeae 35/02 (drug-resistant strain). Put plainly: Disk diffusion assay, N. gonorrhoeae 35/02. Conditions: disc 6 mm; for zone of inhibition at 0.2 µg/disc / zone of inhibition at 2 µg/disc / zone of inhibition at 20 µg/disc: Neisseria gonorrhoeae, read-out: diameter of the growth inhibition, 35/02. The method, then: as §1
The subject of test [4] is N. gonorrhoeae F89 (high-level cefixime and ceftriaxone resistance). Description: Disk diffusion assay, N. gonorrhoeae F89. Particulars: disc 6 mm; for zone of inhibition at 0.2 µg/disc / zone of inhibition at 2 µg/disc / zone of inhibition at 20 µg/disc: Neisseria gonorrhoeae, read-out: diameter of the growth inhibition, F89. The protocol: as §1
For test [5], the system named is E. coli W3110. Put plainly: microbe, parasite or virus in culture. Particulars: wild-type E. coli W3110, 22 hours at 37° C., MTT; for MIC: Escherichia coli, W3110, 22 h.
Test [6] deals with P. aeruginosa PAO1. Description: MIC assay, P. aeruginosa PAO1.

Consider `C[C@@](O)(C(F)F)[C@H](NCc1ccc2cc(-c3ccccc3)ccc2c1)C(=O)NO` [Example 149], for which the zone of inhibition at 0.2 µg/disc was determined as 15 mm in test [1] (0.2 μg per disc), 10 mm in test [2], 11 mm in test [3] (0.2 μg per disc) and 19 mm in test [4] (0.2 μg per disc). Further, the zone of inhibition at 2 µg/disc worked out at 22 mm in test [1] (2.0 μg per disc), 24 mm in test [2], 22 mm in test [3] (2.0 μg per disc) and 24 mm in test [4] (2.0 μg per disc). Besides, the zone of inhibition at 20 µg/disc turned out to be 26 mm in test [1] (20 μg per disc), 27 mm in test [2], 25 mm in test [3] (20 μg per disc) and 30 mm in test [4] (20 μg per disc).

`COc1ccc(-c2ccc(CCCN[C@H](C(=O)NO)[C@](C)(O)C(F)F)cc2)cc1` [Example 137]: the MIC in test [5] worked out at 12 µg/mL (≈ 29.4 µM).

With `CC(NCCc1ccc(-c2ccccc2)cc1)(C(=O)NO)C(C)(O)C(F)F.Cl` (centres unmarked) [Example 136], the “MIC P. aeruginosa PAO1” value in test [6] is above 40 µg/mL. The “MIC E. coli W3110” value in test [5] was above 40 µg/mL.

On to `CC(NCCc1ccc(-c2ccccc2)cc1)(C(=O)NO)C(C)(O)C(F)F` (centres unmarked) [Example 12, 2-(2-(biphenyl-4-yl)ethylamino)-4,4-difluoro-N,3-dihydroxy-2,3-dimethylbutanamide], for which the MIC in test [6] (Pseudomonas aeruginosa, PAO1, P. aeruginosa PAO1) was above 40 µg/mL; in test [5], above 40 µg/mL. The zone of inhibition at 2 µg/disc in test [1] (2.0 μg per disc) is below 19 mm.

Turning to `CC(NCCCc1ccc(-c2ccccc2)cc1)(C(=O)NO)C(C)(O)C(F)F.Cl` (single isomer, unassigned) [Example 134], the “MIC P. aeruginosa PAO1” value in test [6] was determined as 2.5 µg/mL. Besides, the figures for the “diameter of the growth inhibition, FA19” value in test [1] (0.2 μg per disc), in test [1] (2.0 μg per disc) and in test [1] (20 μg per disc) were 14 mm, 24 mm and 30 mm, respectively. Moreover, the “diameter of the growth inhibition, H041” value in test [2] (0.2 μg per disc) was 14 mm; in test [2] (2.0 μg per disc) it was 21 mm; in test [2] (20 μg per disc), 26 mm. In addition, the “diameter of the growth inhibition, 35/02” value was found to be 12 mm in test [3] (0.2 μg per disc), 23 mm in test [3] (2.0 μg per disc) and 28 mm in test [3] (20 μg per disc). For the same molecule, the “diameter of the growth inhibition, F89” value in test [4] (0.2 μg per disc) came to 21 mm; in test [4] (2.0 μg per disc), 28 mm; in test [4] (20 μg per disc), 36 mm. In addition, the “MIC E. coli W3110” value in test [5] was 1.25 µg/mL.

In the case of `C[C@@](O)(C(F)F)[C@H](NCc1ccc(-c2ccc(OCCN3CCOCC3)cc2)cc1)C(=O)NO` [Example 145], the zone of inhibition at 0.2 µg/disc in test [1] (0.2 μg per disc), in test [2], in test [3] (0.2 μg per disc) and in test [4] (0.2 μg per disc) was 0 mm each time. Also, the zone of inhibition at 2 µg/disc in test [1] (2.0 μg per disc) was found to be 0 mm; in test [2], 7 mm; in test [3] (2.0 μg per disc), 0 mm; in test [4] (2.0 μg per disc), 7 mm. Besides, the zone of inhibition at 20 µg/disc in test [1] (20 μg per disc) was determined as 14 mm; in test [2] it was 11 mm; in test [3] (20 μg per disc), 12 mm; in test [4] (20 μg per disc) it was 21 mm. The molecule further showed an MIC in test [5] of 25 µg/mL (≈ 52.1 µM).

Regarding `C[C@@](O)(C(F)F)[C@H](NC/C=C/c1ccc(-c2ccccc2)cc1)C(=O)NO` [Example 147], the zone of inhibition at 0.2 µg/disc amounted to 22 mm in test [1] (0.2 μg per disc), 14 mm in test [2], 17 mm in test [3] (0.2 μg per disc) and 28 mm in test [4] (0.2 μg per disc). Also, the zone of inhibition at 2 µg/disc in test [1] (2.0 μg per disc) worked out at 28 mm; in test [2], 30 mm; in test [3] (2.0 μg per disc), 28 mm; in test [4] (2.0 μg per disc) it was 33 mm. For the same molecule, the zone of inhibition at 20 µg/disc in test [1] (20 μg per disc) is 32 mm; in test [2], 35 mm; in test [3] (20 μg per disc), 34 mm; in test [4] (20 μg per disc), 38 mm.

In test [5], `C[C@@](O)(C(F)F)[C@H](NCCCc1ccc(-c2ccc(CN3CCOCC3)cc2)cc1)C(=O)NO` [Example 138] had an MIC of 3 µg/mL (≈ 6.28 µM).

As to `C[C@@](O)(C(F)F)[C@H](NCc1ccc(-c2ccccc2)cc1O)C(=O)NO` [Example 141], the zone of inhibition at 0.2 µg/disc was 12 mm in test [1] (0.2 μg per disc), 0 mm in test [2], 7 mm in test [3] (0.2 μg per disc) and 10 mm in test [4] (0.2 μg per disc). Besides, the zone of inhibition at 2 µg/disc in test [1] (2.0 μg per disc) worked out at 21 mm; in test [2] it was 15 mm; in test [3] (2.0 μg per disc) it was 16 mm; in test [4] (2.0 μg per disc) it was 22 mm. Further, the zone of inhibition at 20 µg/disc in test [1] (20 μg per disc) stood at 28 mm; in test [2], 22 mm; in test [3] (20 μg per disc), 25 mm; in test [4] (20 μg per disc), 30 mm. The same molecule had an MIC in test [5] of 50 µg/mL (≈ 136 µM).

In the case of `CC(O)(CF)C(C)(NCCCc1ccc(-c2ccccc2)cc1)C(=O)NO.Cl` (centres unmarked) [Example 139], the “diameter of the growth inhibition, FA19” value in test [1] (0.2 μg per disc) worked out at 11 mm; in test [1] (2.0 μg per disc), 20 mm; in test [1] (20 μg per disc), 24 mm. In addition, the figures for the “diameter of the growth inhibition, H041” value in test [2] (0.2 μg per disc), in test [2] (2.0 μg per disc) and in test [2] (20 μg per disc) were 7 mm, 14 mm and 21 mm, respectively. Moreover, the “diameter of the growth inhibition, 35/02” value was found to be 7 mm in test [3] (0.2 μg per disc), 15 mm in test [3] (2.0 μg per disc) and 22 mm in test [3] (20 μg per disc). Further, the “diameter of the growth inhibition, F89” value in test [4] (0.2 μg per disc) is given as 11 mm; in test [4] (2.0 μg per disc), 20 mm; in test [4] (20 μg per disc), 28 mm. For the same molecule, the “MIC E. coli W3110” value in test [5] was determined as 50 µg/mL.

Turning to `COc1ccc(-c2ccn(CCCNC(C)(C(=O)NO)C(C)(O)CF)c(=O)c2)cc1` (centres unmarked) [Example 140], in test [1] (2.0 μg per disc), the zone of inhibition at 2 µg/disc was found to be 13 mm. The zone of inhibition at 20 µg/disc in test [1] (20 μg per disc) came to 22 mm. Further, in test [5], the MIC came to 100 µg/mL (≈ 237 µM).

As to `CN1CCN(Cc2ccc(-c3ccc(CCCN[C@H](C(=O)NO)[C@](C)(O)C(F)F)cc3)cc2)CC1` [Example 144], the zone of inhibition at 0.2 µg/disc in test [1] (0.2 μg per disc), in test [2], in test [3] (0.2 μg per disc) and in test [4] (0.2 μg per disc) was 0 mm each time. Besides, the zone of inhibition at 2 µg/disc in test [1] (2.0 μg per disc), in test [2], in test [3] (2.0 μg per disc) and in test [4] (2.0 μg per disc) was 0 mm in each case. For the same molecule, the zone of inhibition at 20 µg/disc in test [1] (20 μg per disc), in test [2], in test [3] (20 μg per disc) and in test [4] (20 μg per disc) was 0 mm in each case. This molecule returned an MIC in test [5] of 50 µg/mL (≈ 102 µM).

With `CC(NCCCc1ccc(-c2ccccc2)cc1)(C(=O)NO)C(O)(CF)CF` (centres unmarked) [Example 148], the zone of inhibition at 0.2 µg/disc worked out at 12 mm in test [1] (0.2 μg per disc), 9 mm in test [2], 0 mm in test [3] (0.2 μg per disc) and 13 mm in test [4] (0.2 μg per disc). Further, the zone of inhibition at 2 µg/disc in test [1] (2.0 μg per disc) was 19 mm; in test [2], 15 mm; in test [3] (2.0 μg per disc), 17 mm; in test [4] (2.0 μg per disc), 19 mm. The zone of inhibition at 20 µg/disc in test [1] (20 μg per disc) worked out at 27 mm; in test [2], 24 mm; in test [3] (20 μg per disc) it was 24 mm; in test [4] (20 μg per disc) it was 27 mm.

With `COc1cc(-c2ccccc2)ccc1CN[C@H](C(=O)NO)[C@](C)(O)C(F)F` [Example 146], the zone of inhibition at 0.2 µg/disc in test [1] (0.2 μg per disc), in test [2], in test [3] (0.2 μg per disc) and in test [4] (0.2 μg per disc) was 0 mm each time. The zone of inhibition at 2 µg/disc came to 10 mm in test [1] (2.0 μg per disc), 8 mm in test [2], 0 mm in test [3] (2.0 μg per disc) and 11 mm in test [4] (2.0 μg per disc). In addition, the zone of inhibition at 20 µg/disc in test [1] (20 μg per disc) amounted to 25 mm; in test [2] it was 19 mm; in test [3] (20 μg per disc), 16 mm; in test [4] (20 μg per disc), 27 mm.

`COc1ccc(-c2ccc(CN[C@H](C(=O)NO)[C@](C)(O)C(F)F)cc2)cc1` [Example 142]: the zone of inhibition at 0.2 µg/disc in test [1] (0.2 μg per disc), in test [2], in test [3] (0.2 μg per disc) and in test [4] (0.2 μg per disc) was 0 mm throughout. Further, the zone of inhibition at 2 µg/disc turned out to be 16 mm in test [1] (2.0 μg per disc), 8 mm in test [2], 11 mm in test [3] (2.0 μg per disc) and 16 mm in test [4] (2.0 μg per disc). In addition, the zone of inhibition at 20 µg/disc in test [1] (20 μg per disc) is 21 mm; in test [2], 17 mm; in test [3] (20 μg per disc), 20 mm; in test [4] (20 μg per disc), 24 mm. In test [5], this molecule had an MIC of 100 µg/mL (≈ 263 µM).
